For orientation: pIC50 means −log10 of the IC50, conventionally taken in molar units.

Assay [1] addresses T1, human recombinant HDAC6 (Homo sapiens, UniProt Q9UBN7).
T1 construct: purchased Calbiochem 382180
T1 sequence (Q9UBN7 1-1215): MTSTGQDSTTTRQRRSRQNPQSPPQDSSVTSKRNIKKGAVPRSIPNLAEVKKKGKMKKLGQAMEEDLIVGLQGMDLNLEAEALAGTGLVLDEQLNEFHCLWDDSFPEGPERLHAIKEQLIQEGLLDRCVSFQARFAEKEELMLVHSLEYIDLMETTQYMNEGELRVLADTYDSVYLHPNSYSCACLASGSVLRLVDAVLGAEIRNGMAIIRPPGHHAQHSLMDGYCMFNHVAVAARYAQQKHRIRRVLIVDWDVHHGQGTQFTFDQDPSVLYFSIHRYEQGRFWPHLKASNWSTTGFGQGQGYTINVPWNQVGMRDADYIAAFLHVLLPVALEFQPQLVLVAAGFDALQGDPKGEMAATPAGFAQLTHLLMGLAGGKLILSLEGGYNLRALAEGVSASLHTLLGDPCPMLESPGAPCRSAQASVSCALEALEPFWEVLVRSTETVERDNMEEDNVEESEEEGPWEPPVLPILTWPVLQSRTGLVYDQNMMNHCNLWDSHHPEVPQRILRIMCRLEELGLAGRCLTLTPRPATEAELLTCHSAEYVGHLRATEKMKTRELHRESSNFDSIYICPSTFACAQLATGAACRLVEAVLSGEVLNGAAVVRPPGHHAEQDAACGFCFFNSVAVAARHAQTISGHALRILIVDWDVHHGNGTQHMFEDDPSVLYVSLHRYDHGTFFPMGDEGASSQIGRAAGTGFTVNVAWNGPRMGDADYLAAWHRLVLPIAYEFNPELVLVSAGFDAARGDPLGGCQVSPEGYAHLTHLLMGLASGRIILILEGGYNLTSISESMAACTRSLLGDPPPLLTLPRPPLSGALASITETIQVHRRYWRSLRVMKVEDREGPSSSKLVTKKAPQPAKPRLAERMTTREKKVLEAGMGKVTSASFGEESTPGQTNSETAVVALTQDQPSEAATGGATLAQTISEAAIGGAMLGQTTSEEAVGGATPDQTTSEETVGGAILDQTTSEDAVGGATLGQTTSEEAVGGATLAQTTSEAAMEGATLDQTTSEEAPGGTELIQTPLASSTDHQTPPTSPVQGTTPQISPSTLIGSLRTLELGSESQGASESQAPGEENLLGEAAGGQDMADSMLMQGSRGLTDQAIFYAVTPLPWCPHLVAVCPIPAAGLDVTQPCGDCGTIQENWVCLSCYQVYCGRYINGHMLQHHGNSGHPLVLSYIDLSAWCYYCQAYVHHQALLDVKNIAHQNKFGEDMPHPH
The experiment in a line: HDAC6 enzyme activity inhibition test (HDAC Fluorometric Drug Discovery Kit). In kind it is biochemical. The following applies: for HDAC6 selectivity (fold): HDAC6 over HDAC1; for pIC50: human recombinant HDAC6, same protocol as HDAC1. How it is done:
(§1) The following experiment was conducted to confirm the HDAC6 selectivity of the compound represented by Chemical Formula I of the present invention through the HDAC1 and HDAC6 enzyme activity inhibition test.
(§2) HDAC enzyme activity was measured using HDAC Fluorometric Drug Discovery Kit (BML-AK511, 516) manufactured by Enzo Life Science. For the HDAC1 enzyme activity test, human recombinant HDAC1 (BML-SE456) was used as an enzyme source and Fluor de Lys-®-″SIRT1 (BNL-KI177) was used as a substrate. The 5-fold diluted compound was dispensed in a 96-well plate, 0.3 μg of enzyme and 10 μM substrate were added to each well and reacted at 30° C. for 60 minutes, and Fluor de Lys® Developer II(BML-KI176) was added and reacted for 30 minutes to complete the reaction. Then, the fluorescence value (Ex 360, Em 460) was measured using a multiplate reader (Flexstation 3, Molecular Device). The HDAC6 enzyme was tested using the same protocol as the HDAC1 enzyme activity test method employing human recombinant HDAC6 (382180) from Calbiochem. For the final result, each […] value was calculated using the GraphPad Prism 4.0 program.

Assay [2] deals with T2, human recombinant HDAC1 (Homo sapiens, UniProt Q13547).
T2 construct: purchased Enzo Life Science BML-SE456
T2 sequence (Q13547 whole entry): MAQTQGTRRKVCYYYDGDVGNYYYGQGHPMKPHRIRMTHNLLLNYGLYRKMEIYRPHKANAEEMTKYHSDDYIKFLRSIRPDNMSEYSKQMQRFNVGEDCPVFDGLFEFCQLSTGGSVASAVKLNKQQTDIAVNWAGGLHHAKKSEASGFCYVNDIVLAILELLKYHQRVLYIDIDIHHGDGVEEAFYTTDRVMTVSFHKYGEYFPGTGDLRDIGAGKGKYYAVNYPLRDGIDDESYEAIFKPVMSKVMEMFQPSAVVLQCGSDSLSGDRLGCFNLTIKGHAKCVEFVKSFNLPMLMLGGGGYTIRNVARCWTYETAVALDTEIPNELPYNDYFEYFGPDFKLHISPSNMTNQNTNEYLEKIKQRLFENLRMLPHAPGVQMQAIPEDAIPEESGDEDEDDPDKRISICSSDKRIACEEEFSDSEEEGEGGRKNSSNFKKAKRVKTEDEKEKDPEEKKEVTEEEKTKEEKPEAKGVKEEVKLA
The assay can be described thus: HDAC1 enzyme activity inhibition test (HDAC Fluorometric Drug Discovery Kit). The format is biochemical. The following applies: 30° C., 60 minutes, 10 μM substrate. The protocol:
as §1, §2

The structures appear in SMILES notation. pIC50: −log10 of the molar value.

For `CC(=O)N1CC(N2CCC(c3cccc(-c4nn(Cc5ccc(-c6nnc(C(F)F)o6)cn5)c(=O)o4)c3F)CC2)C1` [Compound 28, 5-[3-[1-(1-acetylazetidine-3-yl)-4-piperidyl]-2-fluoro-phenyl]-3-[[5-[5-(difluoromethyl)-1,3,4-oxadiazol-2-yl]-2-pyridyl]methyl]-1,3,4-oxadiazol-2-one], in assay [1], the “HDAC6 selectivity (fold)” value was 626 fold and the negative logarithm of the IC50 (pIC50) is 7.10. For the same molecule, the pIC50 in assay [2] was below 4.30.
With `CN1CCC(c2ccc(-c3nn(Cc4ccc(-c5nnc(C(F)F)o5)cn4)c(=O)o3)cc2)CC1` [Compound 29, 3-[[5-[5-(difluoromethyl)-1,3,4-oxadiazol-2-yl]-2-pyridyl]methyl]-5-[4-(1-methyl-4-piperidyl)phenyl]-1,3,4-oxadiazol-2-one], the “HDAC6 selectivity (fold)” value in assay [1] is given as 745 fold. The pIC50 in assay [1] is 7.17; in assay [2], below 4.30.
As to `CC(C)N1CCC(c2ccc(-c3nn(Cc4ccc(-c5nnc(C(F)F)o5)cn4)c(=O)o3)cc2)CC1` [Compound 30, 3-[[5-[5-(difluoromethyl)-1,3,4-oxadiazol-2-yl]-2-pyridyl]methyl]-5-[4-(1-isopropyl-4-piperidyl)phenyl]-1,3,4-oxadiazol-2-one], in assay [1], the “HDAC6 selectivity (fold)” value is 518 fold and the negative logarithm of the IC50 (pIC50) was 7.02. Besides, the pIC50 in assay [2] was below 4.30.
For `Cn1ccc2ccc(-c3nn(Cc4ccc(-c5nnc(C(F)F)o5)cn4)c(=O)o3)cc21` [Compound 31, 3-[[5-[5-(difluoromethyl)-1,3,4-oxadiazol-2-yl]-2-pyridyl]methyl]-5-(1-methylindol-6-yl)-1,3,4-oxadiazol-2-one], in assay [1], the “HDAC6 selectivity (fold)” value is listed as 643 fold and the pIC50 was 7.11. The pIC50 in assay [2] is below 4.30.
For `Cn1ccc2cc(-c3nn(Cc4ccc(-c5nnc(C(F)F)o5)cn4)c(=O)o3)cnc21` [Compound 32, 3-[[5-[5-(difluoromethyl)-1,3,4-oxadiazol-2-yl]-2-pyridyl]methyl]-5-(1-methylpyrrolo[2,3-b]pyridin-5-yl)-1,3,4-oxadiazol-2-one], in assay [1], the “HDAC6 selectivity (fold)” value is 774 fold. Moreover, the negative-log IC50 (pIC50) in assay [1] is 7.19; in assay [2] it was below 4.30.
In the case of `O=c1oc(-c2ccc3cc[nH]c3c2)nn1Cc1ccc(-c2nnc(C(F)F)o2)cn1` [Compound 33, 3-[[5-[5-(difluoromethyl)-1,3,4-oxadiazol-2-yl]-2-pyridyl]methyl]-5-(1H-indole-6-yl)-1,3,4-oxadiazol-2-one], in assay [1], the “HDAC6 selectivity (fold)” value was found to be 1506 fold and the pIC50 is 7.48. Moreover, in assay [2], the negative-log IC50 (pIC50) was below 4.30.
For the molecule `O=c1oc(-c2cccc3[nH]ccc23)nn1Cc1ccc(-c2nnc(C(F)F)o2)cn1` [Compound 34, 3-[[5-[5-(difluoromethyl)-1,3,4-oxadiazol-2-yl]-2-pyridyl]methyl]-5-(1H-indol-4-yl)-1,3,4-oxadiazol-2-one], in assay [1], the “HDAC6 selectivity (fold)” value came out at 1695 fold and the negative logarithm of the IC50 (pIC50) was 7.53. Also, in assay [2], the pIC50 is below 4.30.
Consider `O=c1oc(-c2cccc3[nH]ccc23)nn1Cc1ncc(-c2nnc(C(F)F)o2)cc1F` [Compound 35, 3-[[5-[5-(difluoromethyl)-1,3,4-oxadiazol-2-yl]-3-fluoro-2-pyridyl]methyl]-5-(1H-indol-4-yl)-1,3,4-oxadiazol-2-one], for which, in assay [1], the “HDAC6 selectivity (fold)” value is on record as 643 fold and the negative-log IC50 (pIC50) was 7.11. Further, the pIC50 in assay [2] is below 4.30.
Turning to `O=c1oc(-c2cccc(N3CCNCC3)c2)nn1Cc1ccc(-c2nnc(C(F)F)o2)cn1` [Compound 36, 3-[[5-[5-(difluoromethyl)-1,3,4-oxadiazol-2-yl]-2-pyridyl]methyl]-5-(3-piperazin-1-ylphenyl)-1,3,4-oxadiazol-2-one], in assay [1], the “HDAC6 selectivity (fold)” value was determined as 640 fold and the pIC50 was 7.11. For the same molecule, the pIC50 in assay [2] was below 4.30.
The like results for `CN1CCN(c2cccc(-c3nn(Cc4ccc(-c5nnc(C(F)F)o5)cn4)c(=O)o3)c2)CC1` [Compound 37, 3-[[5-[5-(difluoromethyl)-1,3,4-oxadiazol-2-yl]-2-pyridyl]methyl]-5-[3-(4-methylpiperazin-1-yl)phenyl]-1,3,4-oxadiazol-2-one] were, in that order, 512 fold, 7.01 and below 4.30.
On to `CC(C)N1CCN(c2cccc(-c3nn(Cc4ccc(-c5nnc(C(F)F)o5)cn4)c(=O)o3)c2)CC1` [Compound 38, 3-[[5-[5-(difluoromethyl)-1,3,4-oxadiazol-2-yl]-2-pyridyl]methyl]-5-[3-(4-isopropylpiperazin-1-yl)phenyl]-1,3,4-oxadiazol-2-one], for which, in assay [1], the “HDAC6 selectivity (fold)” value is listed as 988 fold and the negative logarithm of the IC50 (pIC50) was 7.30. In addition, in assay [2], the pIC50 was below 4.30.
`O=c1oc(-c2cccc(N3CCN(C4CCC4)CC3)c2)nn1Cc1ccc(-c2nnc(C(F)F)o2)cn1` [Compound 39, 5-[3-(4-cyclobutylpiperazin-1-yl)phenyl]-3-[[5-[5-(difluoromethyl)-1,3,4-oxadiazol-2-yl]-2-pyridyl]methyl]-1,3,4-oxadiazol-2-one]: in assay [1], the “HDAC6 selectivity (fold)” value is 605 fold and the pIC50 was 7.08. The pIC50 in assay [2] is below 4.30.
As to `O=c1oc(-c2cccc(N3CCN(C4COC4)CC3)c2)nn1Cc1ccc(-c2nnc(C(F)F)o2)cn1` [Compound 40, 3-[[5-[5-(difluoromethyl)-1,3,4-oxadiazol-2-yl]-2-pyridyl]methyl]-5-[3-[4-(oxetane-3-yl)piperazin-1-yl]phenyl]-1,3,4-oxadiazol-2-one], in assay [1], the “HDAC6 selectivity (fold)” value was 652 fold and the pIC50 is 7.12. In addition, in assay [2], the pIC50 is below 4.30.
In the same order, the values of `CN1CCC(c2cccc(-c3nn(Cc4ccc(-c5nnc(C(F)F)o5)cn4)c(=O)s3)c2F)CC1` [Compound 41, 3-[[5-[5-(difluoromethyl)-1,3,4-oxadiazol-2-yl]-2-pyridyl]methyl]-5-[2-fluoro-3-(1-methyl-4-piperidyl)phenyl]-1,3,4-thiadiazol-2-one] are 909 fold, 7.26 and below 4.30.
The like results for `O=c1oc(-c2ccc3ccccc3n2)nn1Cc1ccc(-c2nnc(C(F)F)o2)cn1` [Compound 42, 3-[[5-[5-(difluoromethyl)-1,3,4-oxadiazol-2-yl]-2-pyridyl]methyl]-5-(2-quinolyl)-1,3,4-oxadiazol-2-one] were, in that order, 975 fold, 7.29 and below 4.30.
The like results for `O=c1sc(-c2ccccc2)nn1Cc1ccc(-c2nnc(C(F)F)o2)cn1` [Compound 43, 3-[[5-[5-(difluoromethyl)-1,3,4-oxadiazol-2-yl]-2-pyridyl]methyl]-5-phenyl-1,3,4-thiadiazol-2-one] were, in that order, 359 fold, 6.86 and below 4.30.
As to `O=c1sc(-c2cccs2)nn1Cc1ccc(-c2nnc(C(F)F)o2)cn1` [Compound 44, 3-[[5-[5-(difluoromethyl)-1,3,4-oxadiazol-2-yl]2-pyridyl]methyl]-5-(2-thienyl)-1,3,4-thiadiazol-2-one], in assay [1], the “HDAC6 selectivity (fold)” value is reported as 704 fold and the negative logarithm of the IC50 (pIC50) is 7.15. Also, the pIC50 in assay [2] is below 4.30.

Source of the values: patent US20260327214A1, “1,3,4-OXADIAZOLE DERIVATIVE COMPOUNDS AS HISTONE DEACETYLASE 6 INHIBITOR, AND USES THEREOF” (CHONG KUN DANG PHARMACEUTICAL CORP., priority 2022, published 2026).
